# Measurements published in article PMC4641156, “Evaluation of a Novel Tc-99m Labelled Vitamin B12 Derivative for Targeting Escherichia coli and Staphylococcus aureus In Vitro and in an Experimental Foreign-Body Infection Model” (Molecular Imaging and Biology, 2015).
# Legend:
# E. coli-infected cages = assay: Distribution into E. coli-infected tissue cages and cage fluids; details: for Cage—E. coli, mean % ID/g tissue ± SD: explanted E. coli-infected cage
# Protocol: (§1) For in vivo studies, overnight cultures were prepared in 5 ml tryptic soy broth (TSB), incubated at 37 °C for 18–20 h. Bacterial suspensions were then washed three times, resuspended in 5 ml of sterile 0.9 % saline and diluted.
# (§2) C57Bl/6 mice from in-house breeding or purchased from Charles River Laboratories GmbH (Sulzfeld, Germany) were housed in the Animal Facility of the Department of Biomedicine, University Hospital, Basel, Switzerland. Experiments were performed in accordance to the regulations of Swiss veterinary law. The Institutional Animal Care and Use Committee approved the study protocol. Drinking water and standard laboratory food pellets (CR) were provided ad libitum. To reduce interference of high vitamin B12 level in mice, animals randomized for Cbl biodistribution studies were fed with a vitamin B12-reduced diet (Provimi Kliba AG, Kaiseraugst, Switzerland) beginning at the age of 10 weeks. At the age of 12 weeks, one sterile polytetrafluoroethylene (Teflon) tube (32 × 10 mm), perforated by 130 regularly spaced holes of 1 mm diameter, was aseptically implanted into the back of each mouse, as previously described. Each cage was weighted and numbered before implantation. Two weeks after surgery, clips were removed from healed wounds, and sterility of the cage was confirmed by culture of aspirated cage fluid. On the following day, 5 × 10^5 CFU of E. coli or 5 × 10^6 CFU of S. aureus, resuspended in 200 μl of 0.9 % saline, were injected into cages. Sterile 0.9 % saline was injected in cages in animals used as negative controls.
# (§3) Accumulation of radiopharmaceuticals in cage fluids was measured by resuspending 100 μl of aspirated fluid in 1 ml PBS and counted in a gamma counter. The percentage of injected dose (% IDTCF/ml) was calculated as measured CPM normalized per 1 ml cage fluid and divided by the CPM0 (injected dose). For determination of radiopharmaceutical biodistribution, mice were sacrificed with an intraperitoneal injection of 50–80 μl saline solution of pentothal (100 mg/ml). Blood was collected by cardiac puncture, and mice were perfused with 0.9 % saline for around 5 min. Following, tissues were dissected, weighted and collected into test tubes for γ-counter (blood, heart, liver, spleen, stomach, kidneys, lungs, intestine, muscle, bone and cage). The percentage of injected dose (% IDtissue/g) was calculated as CPM associated to each organ divided by its weight in grams and by the CPM0.
# [1] = Biodistribution after i.v. injection in tissue cage mouse model (organs, tissues, cages overall)
# Protocol: as §2
# The two different experimental set-up of biodistribution were adapted to the known radiopharmaceutical binding/non-binding to plasma protein, persistence in organs and tissues and half-life of the labelling radioisotope.
# as §3
# [2] = Distribution into sterile (non-infected) tissue cages and cage fluids; details: for Cage—sterile, mean % ID/g tissue ± SD: explanted sterile cage
# Protocol: as §2, §3
# S. aureus-infected cages = assay: Distribution into S. aureus-infected tissue cages and cage fluids; details: for Cage—S. aureus, mean % ID/g tissue ± SD: explanted S. aureus-infected cage
# Protocol: as §1, §2, §3
# [3] = system: S. aureus (ATCC 35556, methicillin susceptible); assay: In vitro binding of radiotracers to S. aureus (kinetics and competition with unlabeled Cbl); assay type: cell-based, Staphylococcus aureus
# Protocol: Laboratory strains E. coli (ATCC 25922) and S. aureus (ATCC 35556, methicillin susceptible) were used. Bacteria were stored at −70 °C using a cryovial bead preservation system (Microbank, Pro-Lab Diagnostics, Richmond Hill, ON, Canada). Single cryovial beads were cultured overnight on Columbia sheep blood agar plates (Becton Dickinson, Heidelberg, Germany). For in vitro binding studies, overnight cultures were prepared in snap-lid tubes from 2 to 3 CFU in 5 ml of a synthetic minimal medium depleted of vitamin B12. After 18–20 h of incubation at 37 °C and 200 rpm, the cultures were diluted 1:100 in the same medium and further incubated at 37 °C to mid-logarithmic phase in sealed tubes. […] Five hundred microlitres of resuspended cultures were transferred to Eppendorf tubes and used for the measurement of binding to viable bacteria at 37 °C. For testing binding at 4 °C, bacterial suspension in PBS were let to equilibrate for 1 h at 4 °C before adding the radiopharmaceuticals. […] The bacterial suspensions were then centrifuged, resuspended in PBS and used for further studies. […] Colony counts remained <10 CFU/ml. Five hundred microlitres of each radiopharmaceutical solution was added to the 500 μl of bacterial suspensions. Binding assays were performed in quadruplicate vials per testing conditions. Afterwards, vials were centrifuged for 5 min at 13,500 rpm and 4 °C, and pellets were washed with 500 μl of cooled PBS. Supernatants and resuspended pellets were counted in a multi-well NaI γ-counter (Cobra; Packard, USA) and the counts per minute (CPM) recorded. The percentage of radiolabeled Cbl in the pellets was calculated as the percentage of the CPMp/CPM0 ratio per log10 8.0 CFU/ml, where CPMp were the CPM associated to pellets and CPM0 were the total CPM of the radiolabeled Cbl added per vial.
# E. coli (ATCC 25922) = assay: In vitro binding of radiotracers to E. coli (kinetics and competition with unlabeled Cbl); assay type: cell-based, Escherichia coli
# Protocol: Laboratory strains E. coli (ATCC 25922) and S. aureus (ATCC 35556, methicillin susceptible) were used. Bacteria were stored at −70 °C using a cryovial bead preservation system (Microbank, Pro-Lab Diagnostics, Richmond Hill, ON, Canada). Single cryovial beads were cultured overnight on Columbia sheep blood agar plates (Becton Dickinson, Heidelberg, Germany). For in vitro binding studies, overnight cultures were prepared in snap-lid tubes from 2 to 3 CFU in 5 ml of a synthetic minimal medium depleted of vitamin B12. After 18–20 h of incubation at 37 °C and 200 rpm, the cultures were diluted 1:100 in the same medium and further incubated at 37 °C to mid-logarithmic phase in sealed tubes. […] Five hundred microlitres of resuspended cultures were transferred to Eppendorf tubes and used for the measurement of binding to viable bacteria at 37 °C. For testing binding at 4 °C, bacterial suspension in PBS were let to equilibrate for 1 h at 4 °C before adding the radiopharmaceuticals. […] Supernatants and resuspended pellets were counted in a multi-well NaI γ-counter (Cobra; Packard, USA) and the counts per minute (CPM) recorded. The percentage of radiolabeled Cbl in the pellets was calculated as the percentage of the CPMp/CPM0 ratio per log10 8.0 CFU/ml, where CPMp were the CPM associated to pellets and CPM0 were the total CPM of the radiolabeled Cbl added per vial.
# [4] = system: transcobalamin II (TC II); set-up: method as in PMID 12831983, PMID 18413759; details: cited from earlier work
# [5] = cage fluid, vs sterile controls
compound,measurement,setting,value
O=C([O-])CN(CCN(CC(=O)[O-])CC(=O)[O-])CCN(CC(=O)[O-])CC(=O)[O-].[99Tc+4] [[^99mTc]DTPA],"Cage—E. coli, mean % ID/g tissue ± SD",E. coli-infected cages; 4 h after i.v. injection,0.91 ± 0.15 % ID/g tissue
same,"Cage—E. coli, mean % ID/g tissue ± SD",E. coli-infected cages; 24 h after i.v. injection,0.15 ± 0.10 % ID/g tissue
same,"Blood, mean % ID/g tissue ± SD",[1]; 30 min after i.v. injection,1.46 ± 1.10 % ID/g tissue
same,"Blood, mean % ID/g tissue ± SD",[1]; 4 h after i.v. injection,0.02 ± 0.10 % ID/g tissue
same,"Blood, mean % ID/g tissue ± SD",[1]; 24 h after i.v. injection,0.01 ± 0.00 % ID/g tissue
same,"Bone, mean % ID/g tissue ± SD",[1]; 30 min after i.v. injection,0.47 ± 0.30 % ID/g tissue
same,"Bone, mean % ID/g tissue ± SD",[1]; 4 h after i.v. injection,0.05 ± 1.50 % ID/g tissue
same,"Bone, mean % ID/g tissue ± SD",[1]; 24 h after i.v. injection,0.01 ± 0.00 % ID/g tissue
same,"Heart, mean % ID/g tissue ± SD",[1]; 4 h after i.v. injection,0.05 ± 0.00 % ID/g tissue
same,"Heart, mean % ID/g tissue ± SD",[1]; 24 h after i.v. injection,0.01 ± 0.00 % ID/g tissue
same,"Intestine, mean % ID/g tissue ± SD",[1]; 30 min after i.v. injection,0.90 ± 0.50 % ID/g tissue
same,"Intestine, mean % ID/g tissue ± SD",[1]; 4 h after i.v. injection,0.66 ± 0.20 % ID/g tissue
same,"Intestine, mean % ID/g tissue ± SD",[1]; 24 h after i.v. injection,0.02 ± 0.00 % ID/g tissue
same,"Kidneys, mean % ID/g tissue ± SD",[1]; 30 min after i.v. injection,3.92 ± 0.80 % ID/g tissue
same,"Kidneys, mean % ID/g tissue ± SD",[1]; 4 h after i.v. injection,0.93 ± 0.80 % ID/g tissue
same,"Kidneys, mean % ID/g tissue ± SD",[1]; 24 h after i.v. injection,0.15 ± 0.00 % ID/g tissue
same,"Liver, mean % ID/g tissue ± SD",[1]; 30 min after i.v. injection,0.33 ± 0.20 % ID/g tissue
same,"Liver, mean % ID/g tissue ± SD",[1]; 4 h after i.v. injection,0.09 ± 0.00 % ID/g tissue
same,"Liver, mean % ID/g tissue ± SD",[1]; 24 h after i.v. injection,0.02 ± 0.00 % ID/g tissue
same,"Lungs, mean % ID/g tissue ± SD",[1]; 30 min after i.v. injection,0.40 ± 0.20 % ID/g tissue
same,"Lungs, mean % ID/g tissue ± SD",[1]; 4 h after i.v. injection,0.06 ± 0.10 % ID/g tissue
same,"Lungs, mean % ID/g tissue ± SD",[1]; 24 h after i.v. injection,0.01 ± 0.00 % ID/g tissue
same,"Muscle, mean % ID/g tissue ± SD",[1]; 30 min after i.v. injection,0.34 ± 0.30 % ID/g tissue
same,"Muscle, mean % ID/g tissue ± SD",[1]; 4 h after i.v. injection,0.06 ± 1.10 % ID/g tissue
same,"Muscle, mean % ID/g tissue ± SD",[1]; 24 h after i.v. injection,0.00 ± 0.00 % ID/g tissue
same,"Spleen, mean % ID/g tissue ± SD",[1]; 30 min after i.v. injection,0.19 ± 0.00 % ID/g tissue
same,"Spleen, mean % ID/g tissue ± SD",[1]; 4 h after i.v. injection,0.06 ± 0.00 % ID/g tissue
same,"Spleen, mean % ID/g tissue ± SD",[1]; 24 h after i.v. injection,0.02 ± 0.00 % ID/g tissue
same,"Stomach, mean % ID/g tissue ± SD",[1]; 30 min after i.v. injection,1.67 ± 1.70 % ID/g tissue
same,"Stomach, mean % ID/g tissue ± SD",[1]; 4 h after i.v. injection,0.05 ± 1.10 % ID/g tissue
same,"Stomach, mean % ID/g tissue ± SD",[1]; 24 h after i.v. injection,0.02 ± 0.00 % ID/g tissue
same,"Cage—sterile, mean % ID/g tissue ± SD",[2]; 30 min after i.v. injection,2.88 ± 0.50 % ID/g tissue
same,"Cage—sterile, mean % ID/g tissue ± SD",[2]; 4 h after i.v. injection,0.34 ± 0.40 % ID/g tissue
same,"Cage—sterile, mean % ID/g tissue ± SD",[2]; 24 h after i.v. injection,0.01 ± 0.00 % ID/g tissue
same,"Cage—S. aureus, mean % ID/g tissue ± SD",S. aureus-infected cages; 4 h after i.v. injection,0.40 ± 0.10 % ID/g tissue
same,"Cage—S. aureus, mean % ID/g tissue ± SD",S. aureus-infected cages; 24 h after i.v. injection,0.05 ± 0.10 % ID/g tissue
"O=C([O-])CC(O)(CC(=O)[O-])C(=O)[O-].[67Ga+3] [[^67Ga]citrate, Gallium-67 citrate]","Cage fluid/blood ratio, mice infected with E. coli",E. coli-infected cages; 72 h p.i.,5.41 ± 0.52
same,"Cage—E. coli, mean % ID/g tissue ± SD",E. coli-infected cages; 72 h after i.v. injection,3.99 ± 1.10 % ID/g tissue
same,"Blood, mean % ID/g tissue ± SD",[1]; 72 h after i.v. injection,0.46 ± 0.20 % ID/g tissue
same,"Bone, mean % ID/g tissue ± SD",[1]; 72 h after i.v. injection,10.99 ± 2.40 % ID/g tissue
same,Time to peak values in cages,[1]; cage fluids,≤ 12 h
same,"Heart, mean % ID/g tissue ± SD",[1]; 72 h after i.v. injection,1.26 ± 0.10 % ID/g tissue
same,"Intestine, mean % ID/g tissue ± SD",[1]; 72 h after i.v. injection,2.00 ± 0.40 % ID/g tissue
same,"Kidneys, mean % ID/g tissue ± SD",[1]; 72 h after i.v. injection,10.73 ± 1.30 % ID/g tissue
same,"Liver, mean % ID/g tissue ± SD",[1]; 72 h after i.v. injection,7.44 ± 0.90 % ID/g tissue
same,"Lungs, mean % ID/g tissue ± SD",[1]; 72 h after i.v. injection,2.11 ± 0.30 % ID/g tissue
same,"Muscle, mean % ID/g tissue ± SD",[1]; 72 h after i.v. injection,0.69 ± 0.20 % ID/g tissue
same,"Spleen, mean % ID/g tissue ± SD",[1]; 72 h after i.v. injection,6.09 ± 0.70 % ID/g tissue
same,"Stomach, mean % ID/g tissue ± SD",[1]; 72 h after i.v. injection,3.73 ± 1.50 % ID/g tissue
same,"Cage fluid/blood ratio, control (non-infected) mice",[2]; 72 h p.i.,1.14 ± 0.21
same,"Cage—sterile, mean % ID/g tissue ± SD",[2]; 72 h after i.v. injection,1.45 ± 0.50 % ID/g tissue
same,"Cage fluid/blood ratio, mice infected with S. aureus",S. aureus-infected cages; 72 h p.i.,3.56 ± 0.87
same,"Cage—S. aureus, mean % ID/g tissue ± SD",S. aureus-infected cages; 72 h after i.v. injection,9.45 ± 2.30 % ID/g tissue
cyanocobalamin [unlabeled Cbl],Excess of unlabeled Cbl that decreased [99mTc]PAMA(4)-Cbl binding to S. aureus,"[3]; S. aureus, 3 h",1 fold
same,Excess of unlabeled Cbl that reduced [57Co]Cbl binding to S. aureus,"[3]; both 37 and 4 °C, 3 h",10 fold
same,Cold Cbl excess sufficient to reduce maximal [57Co]Cbl binding to E. coli to 50 %,E. coli (ATCC 25922); 4 °C and ethanol-killed bacteria,10 fold
same,Concentration of unlabeled Cbl required to show inhibition of [57Co]Cbl binding to E. coli,"E. coli (ATCC 25922); 37 °C, viable bacteria, 1 h simultaneous incubation",1000 fold
[^99mTc]PAMA(4)-cyanocobalamin [[^99mTc]PAMA(4)-Cbl],Time p.i. at which cage fluid retention was significantly higher in E. coli-infected than control mice,E. coli-infected cages; [5],8 h
same,Binding to the major Cbl transport protein TC II,[4],abolished binding
same,"Cage fluid/blood ratio, non-infected mice",[2]; 24 h p.i.,1.53 ± 0.30
same,Binding to killed S. aureus,[3]; ethanol-killed and/or heat-killed bacteria,no binding
same,"In vitro binding to S. aureus, fold lower than [57Co]Cbl",[3]; relative to [57Co]Cbl,3 fold
same,Time p.i. at which cage fluid % IDTCF/ml was significantly higher in S. aureus-infected than control mice,S. aureus-infected cages; [5],4 h
